Test results reported in PubChem BioAssay (NCI).
“And” between values parts separate entries of the source, which are not always exact repeats. Equal values may be shown once.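 Method: 48-hour compound exposure of cells in 96-well plates, five concentrations, linear interpolation of endpoints. The concentration for 50% growth inhibition is given as GI50. TGI denotes the concentration required for complete inhibition of growth.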

Columns and labels:
Experiment in all cases: NCI anticancer screen, dose series, 48 h; in the data active = GI50 below about 0.43 µM; inactive = the rest
[1] = tested on: 786-0 renal
[2] = tested on: A498 renal
[3] = tested on: A549 NSCLC
[4] = tested on: ACHN renal
[5] = tested on: BT-549 breast
[6] = tested on: CAKI-1 renal
[7] = tested on: CCRF-CEM leukemia
[8] = tested on: DU-145 prostate
[9] = tested on: HCC-2998 colon
[10] = tested on: HCT-116 colon
[11] = tested on: HCT-15 colon
[12] = tested on: HL-60(TB) leukemia
[13] = tested on: HOP-62 NSCLC
[14] = tested on: HT29 colon
[15] = tested on: IGROV1 ovarian
[16] = tested on: K-562 leukemia
[17] = tested on: LOX IMVI melanoma
[18] = tested on: M14 melanoma
[19] = tested on: MALME-3M melanoma
[20] = tested on: MCF7 breast
[21] = tested on: MDA-MB-231 breast
[22] = tested on: MDA-MB-435
[23] = tested on: MDA-N
[24] = tested on: MOLT-4 leukemia
[25] = tested on: NCI-H226 lung
[26] = tested on: NCI-H23 lung
[27] = tested on: NCI-H460 lung
[28] = tested on: NCI-H522 lung
[29] = tested on: OVCAR-3 ovarian
[30] = tested on: OVCAR-4 ovarian
[31] = tested on: OVCAR-5 ovarian
[32] = tested on: OVCAR-8 ovarian
[33] = tested on: PC-3 prostate
[34] = tested on: RPMI-8226 leukemia
[35] = tested on: SF-268 CNS
[36] = tested on: SK-MEL-2 melanoma
[37] = tested on: SK-MEL-28 melanoma
[38] = tested on: SK-MEL-5 melanoma
[39] = tested on: SN12C renal
[40] = tested on: SNB-19 CNS
[41] = tested on: SNB-75 CNS
[42] = tested on: SR leukemia
[43] = tested on: SW-620 colon
[44] = tested on: T-47D breast
[45] = tested on: TK-10 renal
[46] = tested on: U251 CNS
[47] = tested on: UACC-257 melanoma
[48] = tested on: UACC-62 melanoma
[49] = tested on: UO-31 renal
[50] = tested on: COLO 205 colon
[51] = tested on: EKVX NSCLC
[52] = tested on: HOP-92 NSCLC
[53] = tested on: KM12 colon
[54] = tested on: NCI/ADR-RES ovarian
[55] = tested on: RXF 393 renal
[56] = tested on: SF-295 CNS
[57] = tested on: SF-539 CNS
[58] = tested on: SK-OV-3 ovarian

Cc1ccc(C(=O)Nc2ccc(S(=O)(=O)O)c3cc(S(=O)(=O)O)cc(S(=O)(=O)O)c23)cc1NC(=O)Nc1cc(C(=O)Nc2ccc(S(=O)(=O)O)c3cc(S(=O)(=O)O)cc(S(=O)(=O)O)c23)ccc1C
> 87.5 µM: TGI [1] | TGI [2] | TGI [3] | TGI [4] | TGI [5] | TGI [6] | TGI [7] | TGI [8] | TGI [9] | TGI [10] | TGI [11] | TGI [12] | TGI [13] | TGI [14] | TGI [15] | TGI [16] | TGI [17] | TGI [18] | TGI [19] | TGI [20] | TGI [21] | TGI [22] | TGI [23] | TGI [24] | TGI [25] | TGI [26] | TGI [27] | TGI [28] | TGI [29] | TGI [30] | TGI [31] | TGI [32] | TGI [33] | TGI [34] | TGI [35] | TGI [36] | TGI [37] | TGI [38] | TGI [39] | TGI [40] | TGI [41] | TGI [42] | TGI [43] | TGI [44] | TGI [45] | TGI [46] | TGI [47] | TGI [48] | TGI [49]

CCOC(=O)[C@@H]1C2C(=C[C@H]3[C@H]1C(=O)N1CCCC[C@H]31)CCCN2C(=O)OCc1ccccc1 (stereo partly drawn)
46.4 µM: TGI [34]
82.6 µM: TGI [27]
96 µM: TGI [2]
53.1 µM: TGI [9]
45 µM: TGI [12]
38.2 µM: TGI [24]
93.9 µM: TGI [26]
51.3 µM: TGI [50]
77.6 µM: TGI [33]
60.3 µM: TGI [35]
81.2 µM: TGI [54]
45.2 µM: TGI [28]
56.8 µM: TGI [36]
> 100 µM: TGI [1] | TGI [3] | TGI [4] | TGI [6] | TGI [7] | TGI [8] | TGI [51] | TGI [10] | TGI [11] | TGI [13] | TGI [52] | TGI [14] | TGI [15] | TGI [16] | TGI [53] | TGI [17] | TGI [18] | TGI [19] | TGI [20] | TGI [21] | TGI [22] | TGI [23] | TGI [25] | TGI [29] | TGI [30] | TGI [31] | TGI [32] | TGI [55] | TGI [56] | TGI [57] | TGI [37] | TGI [38] | TGI [58] | TGI [39] | TGI [40] | TGI [41] | TGI [43] | TGI [44] | TGI [45] | TGI [46] | TGI [47] | TGI [49]
39.2 µM: TGI [48]
62.5 µM: TGI [5]

CCN(CC)CCCNc1nc2ccccc2[n+]([O-])n1
> 100 µM: TGI [1] | TGI [2] | TGI [3] | TGI [4] | TGI [5] | TGI [6] | TGI [7] | TGI [50] | TGI [8] | TGI [9] | TGI [10] | TGI [11] | TGI [12] | TGI [52] | TGI [14] | TGI [15] | TGI [16] | TGI [53] | TGI [18] | TGI [19] | TGI [20] | TGI [21] | TGI [22] | TGI [23] | TGI [24] | TGI [25] | TGI [26] | TGI [27] | TGI [28] | TGI [54] | TGI [29] | TGI [30] | TGI [31] | TGI [32] | TGI [33] | TGI [34] | TGI [55] | TGI [35] | TGI [56] | TGI [57] | TGI [36] | TGI [37] | TGI [38] | TGI [39] | TGI [40] | TGI [41] | TGI [42] | TGI [43] | TGI [44] | TGI [45] | TGI [46] | TGI [47] | TGI [48] | TGI [49]

CCNC(=O)CCC(C)[C@H]1CCC2C3C(C[C@H](OC(C)=O)[C@@]21C)[C@@]1(C)CCC2(C[C@H]1C[C@H]3OC(C)=O)OOC1(CCC(C)CC1)OO2 (stereo partly drawn)
7.44 µM and 3.7 µM: TGI [57]
6.01 µM and 4.28 µM: TGI [10]
4.09 µM and 3.17 µM: TGI [30]
8.28 µM and 4.02 µM: TGI [3]
20.4 µM and 4.62 µM: TGI [11]
> 100 µM and 96.3 µM: TGI [47]
3.32 µM: TGI [42]
9.4 µM and 3.85 µM: TGI [25]
3.93 µM and 2.24 µM: TGI [6]
7.31 µM and 3.38 µM: TGI [52]
> 100 µM and 24.4 µM: TGI [40]
inactive: GI50 [2] > 100 µM and 25.6 µM | GI50 [14] 1.19 µM and 3.04 µM | GI50 [24] 0.658 µM and 1.72 µM | GI50 [33] 0.716 µM and 2.06 µM | GI50 [34] 0.574 µM and 1.39 µM | GI50 [55] 9.58 µM and 3.18 µM | GI50 [35] 4.22 µM and 1.59 µM
6.13 µM: TGI [21]
4.65 µM and 3.13 µM: TGI [4]
> 100 µM and 16.5 µM: TGI [55]
3.7 µM and 3.07 µM: TGI [28]
9.01 µM and 5.24 µM: TGI [26]
3.91 µM and 3.21 µM: TGI [36]
6.29 µM and 4.61 µM: TGI [17]
3.74 µM and 4.85 µM: TGI [12]
3.18 µM and 3.2 µM: TGI [50]
4.43 µM and 3.09 µM: TGI [38]
6.1 µM and 3.92 µM: TGI [19]
7.66 µM and 3.44 µM: TGI [1]
5.89 µM and 5.67 µM: TGI [41]
> 100 µM and 17.4 µM: TGI [37]
2.38 µM and 2.71 µM: TGI [49]
2.66 µM and 5.47 µM: TGI [24]
43 µM and 5.24 µM: TGI [18]
> 100 µM and 11.4 µM: TGI [33]
2.69 µM: TGI [51]
7.3 µM and 3.87 µM: TGI [9]
3.66 µM and 2.87 µM: TGI [15]
4.3 µM and 3.25 µM: TGI [53]
5.94 µM and 3.2 µM: TGI [5]
10.8 µM and 6.15 µM: TGI [48]
3.22 µM and 6.19 µM: TGI [8]
5.18 µM and 3.84 µM: TGI [44]
3.2 µM and 3.94 µM: TGI [7]
7.32 µM and 3.23 µM: TGI [46]
5.22 µM and 3.44 µM: TGI [22]
10.3 µM and 3.92 µM: TGI [23]
2.64 µM and 3.81 µM: TGI [34]
> 100 µM: TGI [2] | TGI [16] | TGI [20] | TGI [31]
3.56 µM and 2.09 µM: TGI [13]
3.62 µM: TGI [29]
6.74 µM and 5.13 µM: TGI [45]

C=C(C(=O)OC)[C@H]1CC/C(C)=C/CC[C@@](C)(O)C=CC[C@@]2(C)O[C@@H]2C1
56.9 µM: TGI [57]
36.6 µM: TGI [10]
50.2 µM: TGI [6]
28.5 µM: TGI [14]
42.4 µM: TGI [29]
27 µM: TGI [32]
31 µM: TGI [50]
87.2 µM: TGI [2]
46.1 µM: TGI [22]
33.8 µM: TGI [42]
41 µM: TGI [37]
61 µM: TGI [26]
52.3 µM: TGI [49]
78.6 µM: TGI [54]
34.8 µM: TGI [1]
31.9 µM: TGI [24]
41.5 µM: TGI [34]
84.1 µM: TGI [8]
70.2 µM: TGI [52]
73.6 µM: TGI [11]
> 100 µM: TGI [3] | TGI [4] | TGI [5] | TGI [51] | TGI [9] | TGI [13] | TGI [15] | TGI [53] | TGI [18] | TGI [20] | TGI [21] | TGI [23] | TGI [25] | TGI [27] | TGI [30] | TGI [31] | TGI [33] | TGI [55] | TGI [35] | TGI [56] | TGI [36] | TGI [58] | TGI [39] | TGI [40] | TGI [41] | TGI [43] | TGI [44] | TGI [45] | TGI [46] | TGI [47] | TGI [48]
20.1 µM: TGI [38]
